Measurements from patent publication US20220040316A1, “TRIPLE COMBINATION THERAPIES FOR TARGETING MITOCHONDRIA AND KILLING CANCER STEM CELLS” (LUNELLA BIOTECH, INC., priority 2018, published 2022).
“Also recorded” adds a separate entry of the source.

Key:
MCF7 cells [1] = experiment: Metabolic flux analysis (Seahorse XFe96, OCR and ECAR); assay type: cell-based, human
Experimental: Metabolic Flux Analysis: Real-time oxygen consumption rates (OCR) and extracellular acidification rates (ECAR) rates in MCF7 cells were determined using the Seahorse Extracellular Flux (XFe96) analyzer (Seahorse Bioscience, USA). Briefly, 1.5×10^4 cells per well were seeded into XFe96 well cell culture plates, and incubated overnight to allow cell attachment. Then, cells were treated with antibiotics for 72 h. Vehicle-alone control cells were processed in parallel. After 72 hours of incubation, cells were washed in pre-warmed XF assay media (or for OCR measurement, XF assay media supplemented with 10 mM glucose, 1 mM Pyruvate, 2 mM L-glutamine and adjusted at 7.4 pH). Cells were then maintained in 175 μL/well of XF assay media at 37° C., in a non-CO2 incubator for 1 hour. During the incubation time, we loaded 25 μL of 80 mM glucose, 9 μM oligomycin, and 1M 2-deoxyglucose (for ECAR measurement) or 10 μM oligomycin, 9 μM FCCP, 10 μM rotenone, 10 μM antimycin A (for OCR measurement), in XF assay media into the injection ports in the XFe96 sensor cartridge. Measurements were normalized by protein content (Bradford assay). Data sets were analyzed using XFe96 software and GraphPad Prism software, using one-way ANOVA and Student's t-test calculations. All experiments were performed in quintuplicate, three times independently.

U937 cells = U937 cells incubated 15 minutes in media containing 3 μM Vitamin C; cited from earlier work
rat heart = conditions: Vitamin C alone, hypoxia, previous studies; cited from earlier work
[2] = oral administration; cited from earlier work
MCF7 cells [3] = experiment: Mammosphere formation assay (MFE, CSC propagation) in MCF7 cells; assay type: cell-based, human
Experimental: The data represents mammosphere counts after exposure to a compound, as a percentage of a control. The compounds were tested at concentrations of 1.5 μM, 3 μM, 6 μM, and 12 μM.
Mammosphere Formation Assay: A single cell suspension was prepared using enzymatic (1× Trypsin-EDTA, Sigma Aldrich, #T3924), and manual disaggregation (25 gauge needle). Cells were plated at a density of 500 cells/cm2 in mammosphere medium (DMEM-F12+B27+20 ng/ml EGF+PenStrep) under non-adherent conditions, in culture dishes pre-coated with (2-hydroxyethylmethacrylate) (poly-HEMA, Sigma, #P3932), called “tumor-sphere plates”. Vehicle alone (DMSO) control cells were processed in parallel. Cells were grown for 5 days and maintained in a humidified incubator at 37° C. After 5 days of culture, 3D mammospheres >50 μm were counted using an eye piece (“graticule”), and the percentage of cells plated which formed spheres was calculated and is referred to as percent mammosphere formation (MFE, and was normalized to one (1=100% MSF).

senescent fibroblasts = conditions: azithromycin by itself; cited from earlier work
CSCs = experiment: Inhibition of CSC propagation / CSC inhibition activity (assay not specified); assay type: cell-based
MCF7 cells [4] = experiment: Cellular retention by green auto-fluorescence; assay type: cell-based, human; conditions: 10 μM, 72 hours, washed with PBS
Experimental: FIGS. 16A-16C are images comparing the cellular retention of the doxycycline-myristate conjugate, to unconjugated doxycycline. MCF7 cells were cultured in tissue culture media in the presence of either therapeutic agent (i.e., the doxycycline-myristate conjugate or unconjugated doxycycline), at a concentration of 10 μM, for 72 hours. Then, the cells were washed with PBS and any therapeutic agent retained within the cells was visualized by green auto-fluorescence, from the excitation of the tetracycline ring structure. Control cells were incubated with vehicle-alone. […] The original color in the images has been inverted, to […], and the darker regions of FIG. 16B indicate increased cellular retention of the conjugated therapeutic agent.

MCF7 cells [5] = experiment: Cell viability, bulk MCF7 cells; assay type: cell-based, human; conditions: range of concentrations up to 20 μM
Source text: (§1) Embodiments of therapeutic agents conjugated with targeting signals have shown less toxicity in bulk cancer cells and normal fibroblasts compared to unconjugated therapeutic agents. For example, FIGS. 17A and 17B show cell viability data for doxycycline and the doxycycline-myristate conjugate shown as compound [1], for bulk MCF7 cells and bulk BJ cells, respectively. The data represents cell viability expressed as a percentage of a control. […] Similar behavior has been seen in other therapeutic agents conjugated with targeting signals.

BJ cells = experiment: Cell viability, bulk BJ cells; assay type: cell-based; conditions: range of concentrations up to 20 μM
Source text: as §1

[6] = system: breast cancer tumor samples; experiment: ABC trial pilot study: CSC markers in tumor samples after oral doxycycline; assay type: in vivo, human
Experimental: Doxycycline impacts cancer growth through inhibition of CSC propagation with an IC-50 between 2-to-10 μM. The Antibiotic for Breast Cancer (ABC) trial was conducted at The University of Pisa Hospital. The ABC trial aimed to assess the anti-proliferative and anti-CSC mechanistic actions of doxycycline in early breast cancer patients. […] A pilot study of the ABC trial confirmed that doxycycline treatment successfully decreases the expression of CSC markers in breast cancer tumor samples. […] This represents a 90% positive response rate.

[7] = MCF7 monolayers pre-treated 3-days, doxycycline 1 μM, azithromycin 1 μM, Vitamin C 250 μM as applicable, vs control
[8] = breast cancer patients treated with doxycycline

Compound: O=C1O[C@H]([C@@H](O)CO)C(O)=C1O [Vit C, Ascorbic Acid]
- ATP production / ATP levels (MCF7 cells [1]; [7]): significantly increased
- basal respiration (MCF7 cells [1]; [7]): significantly increased
- glycolysis (ECAR) (MCF7 cells [1]; [7]): significantly increased
- glycolytic reserve (MCF7 cells [1]; [7]): significantly increased
- glycolytic reserve capacity (MCF7 cells [1]; [7]): decreasing
- maximal respiration (MCF7 cells [1]; [7]): significantly increased
- oxidative mitochondrial metabolism (OCR) (MCF7 cells [1]; [7]): significantly increased; also recorded: increases
- increase of mitochondrial ATP production (MCF7 cells [1]; Vitamin C alone, MCF7 cells): up to 2 fold
- Vitamin C level reached in mitochondria (U937 cells): 5 mM
- increase of mitochondrial ATP production (rat heart): up to 1.5 fold
- peak Vitamin C concentration in blood/serum/plasma [2]: about 250

Compound: CC[C@H]1OC(=O)[C@H](C)[C@@H](O[C@H]2C[C@@](C)(OC)[C@@H](O)[C@H](C)O2)[C@H](C)[C@@H](O[C@@H]2O[C@H](C)C[C@H](N(C)C)[C@H]2O)[C@](C)(O)C[C@@H](C)CN(C)[C@H](C)[C@@H](O)[C@]1(C)O [azithromycin]
- inhibition of mammosphere formation (MCF7 cells [3]; drug alone at low concentrations (0.1 μM and 1 μM)): little or no effect
- efficiency of senolytic activity (removal of senescent fibroblasts) (senescent fibroblasts): ~97%

Compound: CCCCCCCCCCCCCC(=O)N(C)[C@H]1C[C@@H](C)O[C@@H](O[C@@H]2[C@@H](C)[C@H](O[C@H]3C[C@@](C)(OC)[C@@H](O)[C@H](C)O3)[C@@H](C)C(=O)O[C@H](CC)[C@@](C)(O)[C@H](O)[C@@H](C)N(C)C[C@H](C)C[C@@]2(C)O)[C@@H]1O [compound [15]]
- potency and selectivity for CSCs compared to azithromycin alone (CSCs): improved potency and selectivity

Compound: CCCCCCCCCCCCCC(=O)Nc1ccc2c(c1O)C(=O)C1=C(O)[C@]3(O)C(=O)C(C(N)=O)=C(O)[C@@H](N(C)C)C3[C@@H](O)C1[C@H]2C (stereo partly drawn) [doxycycline-myristate conjugate, (4S,5S,6R,12aS)-4-(dimethylamino)-3,5,10,12,12a-pentahydroxy-6-methyl-1,11-dioxo-9-(tetradecanoylamino)-4a,5,5a,6-tetrahydro-4H-tetracene-2-carboxamide]
- potency in mammosphere assay compared with unconjugated doxycycline (MCF7 cells [3]; MCF7, 1.5 μM, 3 μM, 6 μM and 12 μM, mammosphere counts as percentage of control): more potent
- times more potent than doxycycline for inhibiting CSC propagation (MCF7 cells [3]; from IC50 values, MCF7 mammosphere assay): over 5 times
- CSC inhibition activity compared with the unconjugated antibiotic (CSCs; fatty acid conjugates (myristate where stated)): better CSC inhibitory properties
- cellular retention compared to doxycycline alone (MCF7 cells [4]): significantly improved cellular retention
- toxicity (cell viability as percentage of control) compared with doxycycline (MCF7 cells [5]): less toxic
- toxicity (cell viability as percentage of control) compared with doxycycline (BJ cells): less toxic

Compound: C[C@H]1c2cccc(O)c2C(=O)C2=C(O)[C@]3(O)C(=O)C(C(N)=O)=C(O)[C@@H](N(C)C)[C@@H]3[C@@H](O)[C@@H]21 [doxycycline]
- positive response rate (CD44) [6, 8]: 90%
- rise in CD44, one patient [6, 8]: 15%
- decrease in the stemness marker CD44, post-doxycycline vs pre-doxycycline tumor samples ([6]; early breast cancer patients, short-term pre-operative oral doxycycline): 40%
